Entries after “also recorded” stand apart in the source; their conditions may differ.
Assays:
[1] = test system: NG108-15 neuronal cell line; assay: Rapid bioassay of neurite growth in NG108-15 cells; format: cell-based; settings: 35 uM
Description: When neurons are placed on inhibitory substrates in tissue culture, the neurons remain rounded. When an effective Rho kinase inhibitor is added to the neurons, the neurons are able to grow neurites on myelin substrates. The time that it takes for neurons to grow neurites after the addition of a Rho kinase inhibitor is about the same as the time that it takes for neurons to grow neurites if the neurons had been plated on growth permissive substrate such as laminin or polylysine, which time is typically 1 to 2 days in cell culture. An assessment of resulting neurite growth can be scored by visual means. If needed, a quantitative assessment of neurite growth can be performed. This involves measuring after a time such as 1 to 2 days the neurite length a) in control cultures where neurons are plated on myelin substrates and left untreated with Rho kinase inhibitor for such time, b) in positive control cultures, wherein for example neurons are plated on polylysine but left untreated with Rho kinase inhibitor for such time, and c) in cultures analogous to a) and b) that are treated with different concentrations of a Rho kinase inhibitor for such time. […] In this assay, NG108 cells are plated on plastic in the presence or absence of the test substance (a Rho kinase inhibitor). […] The relative efficacy can be assessed by fixing the cultures 5 hours after plating, and counting the number of cells that have grown neurites.
A rapid bioassay is used to determine the effect of a test compounds on the stimulation of neurite growth in vitro. A neuronal cell line, NG108-15 (ATCC HB-12317), is maintained in culture in Dulbecco's minimal essential medium (DMEM) supplemented with 10% fetal bovine serum, Penicillin/Streptomycin and HAT supplement (Gibco/BRL). For the bioassay, the cells are collected by trypsinisation and ressuspended in DMEM supplemented with 5% FBS, Penicillin/Streptomycin, HAT supplement and 0.25 mg/ml cAMP, adjusted to 1.0×10^4 cells/ml. The cells are plated into wells of a 96 well plate at 100 μls (1000 cells)/well. Cells are incubated 4 h at 37° C. and 5% CO2 in presence of small molecules or cethrin at a concentration of 1000 cells per well of a 96-wells plate in a final volume of 100 ul.
After incubation, cells are fixed by adding […] 16% PFA and 5.4 μls 2.5% glutaraldehyde to the media in each well. The wells are stained with cresyl violet 0.05% , 100 μls/well for 15 min. Cells with neurites (length≧one cell body) are counted using an inverted light microscope. The % neurite outgrowth is determined by calculating the number of cells with neurites over the total number of counted cells.

[2] = test system: SK-MEL-1 human malignant melanoma; assay: Thymidine uptake anti-proliferation assay, SK-MEL-1; format: cell-based
Description: (§1) The antiproliferative effects of BA-1037 were tested by a thymidine uptake assay with several different human cancer cell lines grown in culture. The cell lines tested were HEC-1B human adnocarcinoma, SK-MEL-1 human malignant melanoma, and Caco-2 human colorectal adenocarcinoma. The cells were seeded in a 96 well plate and after 2 hours the cells were treated with test BA-1037 compound or with control solutions. The control solutions were PBS as a negative control, and with complete medium plus the DMSO vehicle (at 0.1% or 1%). BA-1037 was added at three different concentrations: 1 uM, 10, uM or 100 uM. Each control solution and test solution was plated in triplicate for each cell line. The plate was incubated at 37 C. with 5% CO2 in a humidified atmosphere for approximately 54 hours. A volume of 0.02 ml of 3H-methy thymidine which contained 1.0 uCi was added to each well. The culture was incubated a further 18 hours. Using an automated cell harvestor the cells from each well were aspirated onto a glass microfiber filter. The cells were broken with distilled water to leave mainly the DNA on the filter. Each filter was placed in a scintillation counter (TopCount NXT). At appropriate settings for the 3H, each filter was counted for one minute. The results are expressed as CPM (counts per minute).

[3] = target: glycogen synthatase kinase 3 beta (GSKB) (Homo sapiens, UniProt P49841); assay: GSK B kinase activity of compounds (FIG. 10); format: biochemical; settings: 10 uM
[4] = target: T1, human Rho kinase II (ROCK-II (h)) (Homo sapiens, UniProt O75116); assay: Commercial inhibition assay with recombinant human ROCKII, IC50 curves (FIGS. 8, 9); format: biochemical
T1 construct: purchased
Source text: Referring to FIGS. 8 and 9 inhibiton of ROCKII activity and determination of IC50 may also be done throught the use of known (i.e. commercial) inhibition assays that use recombinant human ROCKII.

[5] = test system: HEC-1B human adnocarcinoma; assay: Thymidine uptake anti-proliferation assay, HEC-1B; format: cell-based; settings: 100 uM, versus DMSO and PBS controls; Dihydrochloride
Description: as §1

T1 sequence (O75116 whole entry): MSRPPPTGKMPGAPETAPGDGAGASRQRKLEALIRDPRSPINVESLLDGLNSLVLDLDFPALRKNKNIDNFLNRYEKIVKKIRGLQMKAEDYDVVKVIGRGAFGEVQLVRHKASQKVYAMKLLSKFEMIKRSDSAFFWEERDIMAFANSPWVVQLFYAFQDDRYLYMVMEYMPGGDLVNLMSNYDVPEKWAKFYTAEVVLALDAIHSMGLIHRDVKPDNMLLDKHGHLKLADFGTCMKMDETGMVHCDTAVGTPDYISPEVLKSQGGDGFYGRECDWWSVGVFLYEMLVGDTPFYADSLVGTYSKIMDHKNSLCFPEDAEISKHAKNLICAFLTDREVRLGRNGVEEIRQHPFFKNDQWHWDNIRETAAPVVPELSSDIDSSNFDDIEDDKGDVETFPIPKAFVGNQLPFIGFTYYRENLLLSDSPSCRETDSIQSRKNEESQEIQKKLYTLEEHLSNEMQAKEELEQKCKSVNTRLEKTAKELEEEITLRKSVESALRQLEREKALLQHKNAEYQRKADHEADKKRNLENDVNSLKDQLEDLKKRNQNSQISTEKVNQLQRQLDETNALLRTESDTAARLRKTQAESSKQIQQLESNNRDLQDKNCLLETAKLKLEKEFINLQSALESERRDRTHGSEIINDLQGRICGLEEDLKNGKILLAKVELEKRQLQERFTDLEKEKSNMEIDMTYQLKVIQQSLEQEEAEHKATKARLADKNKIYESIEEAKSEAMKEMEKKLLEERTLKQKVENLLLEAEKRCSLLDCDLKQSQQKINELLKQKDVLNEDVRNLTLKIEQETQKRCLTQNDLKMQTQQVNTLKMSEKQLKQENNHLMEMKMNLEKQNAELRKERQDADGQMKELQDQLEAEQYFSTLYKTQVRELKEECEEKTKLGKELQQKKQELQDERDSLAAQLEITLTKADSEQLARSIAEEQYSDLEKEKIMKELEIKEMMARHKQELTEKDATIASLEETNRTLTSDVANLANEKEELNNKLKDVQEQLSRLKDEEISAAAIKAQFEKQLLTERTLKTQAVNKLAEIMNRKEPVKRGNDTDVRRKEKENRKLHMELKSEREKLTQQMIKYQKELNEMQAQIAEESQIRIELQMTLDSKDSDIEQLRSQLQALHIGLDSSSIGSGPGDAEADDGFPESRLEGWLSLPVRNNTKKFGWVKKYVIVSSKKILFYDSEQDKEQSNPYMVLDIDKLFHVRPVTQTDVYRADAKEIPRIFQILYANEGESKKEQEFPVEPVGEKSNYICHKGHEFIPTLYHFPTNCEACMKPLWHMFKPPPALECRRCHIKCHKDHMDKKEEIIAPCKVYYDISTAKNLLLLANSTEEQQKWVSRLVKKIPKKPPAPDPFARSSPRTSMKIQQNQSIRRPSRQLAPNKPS
Sequence of glycogen synthatase kinase 3 beta (GSKB) (P49841 whole entry): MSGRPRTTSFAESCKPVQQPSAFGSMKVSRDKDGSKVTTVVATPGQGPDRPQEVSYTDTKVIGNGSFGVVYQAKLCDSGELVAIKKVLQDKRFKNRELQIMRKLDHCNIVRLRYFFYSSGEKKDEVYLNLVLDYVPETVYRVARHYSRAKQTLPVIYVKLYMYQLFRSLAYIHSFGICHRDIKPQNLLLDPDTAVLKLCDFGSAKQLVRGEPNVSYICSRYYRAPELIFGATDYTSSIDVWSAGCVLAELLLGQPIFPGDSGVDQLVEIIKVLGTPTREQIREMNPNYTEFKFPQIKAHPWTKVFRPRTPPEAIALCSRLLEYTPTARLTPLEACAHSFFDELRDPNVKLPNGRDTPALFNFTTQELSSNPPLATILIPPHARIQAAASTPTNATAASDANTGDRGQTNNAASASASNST

With `CCCCCCCCNN[C@H]1CC[C@H](C(=O)Nc2ccncc2)CC1.Cl.Cl` [BA-1037, trans-4-[N′-(Octyl)hydrazino]-N-(4′″-pyridyl)cyclohexane Carboxamide Dihydrochloride] the “neurite growth by bioassay, normalized to BA-1016 (FIG. 7)” value [1] was “equally well as BA-1016”, the “cell proliferation, all three doses” value ([2]; 1 uM, 10 uM and 100 uM, versus DMSO and PBS controls, Dihydrochloride) was “significantly blocked cell proliferation; also recorded: reduce cell proliferation” and the “cell proliferation, highest concentration tested” value ([2]; 100 uM) was “complete arrest of cell proliferation”. The “activity towards GSKB (FIG. 10)” value [3] was “can exert activity”, the IC50 [4] was 6.5 µM and the “cell proliferation, highest dose tested” value [5] was “significantly blocked cell proliferation; also recorded: completely block proliferation”.

From patent US20040138272A1, “1,4-Substituted cyclohexane derivatives” (priority 2002, published 2004)
